Data published in US12590062B2, “PD-1/PD-L1 inhibitors” (Gilead Sciences, Inc., priority 2017, dated 2026).

How the values were obtained:
PD-1/PD-L1 = PD-1/PD-L1 (Homo sapiens, UniProt Q9NZQ7); assay: PD-1/PD-L1 biochemical protein-protein interaction assay (ALPHA); format: binding; conditions: 0.3 nM His tagged PD-L1, 2.5 nM biotinylated Fc-PD-1, 60 minutes at 25° C., read-out: IC50 PD-L1-PD-1 Alpha IC50-mono PD-L1-fcP-D1
Outline: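 IC50 values derive from four-parameter fits of ALPHA signal decrease. Assay: 0.3 nM His-tagged PD-L1 with 2.5 nM biotinylated Fc-PD-1, Hepes pH 7.4 with 0.005% Tween 20 and 0.01% BSA, 60 min at 25° C, then anti-His acceptor and streptavidin donor beads.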

PD-L1 = target: T1, PD-L1 (Homo sapiens, UniProt Q9NZQ7); assay: PD-L1/PD-L1 dimerization biochemical protein-protein interaction assay (ALPHA); format: binding; conditions: compound-induced PD-L1 dimerization, head prints '1 nM' (0.5 nM His-tagged PD-L1 and 0.5 nM FLAG-tagged PD-L1), read-out: AC50 PDL1 Dimer Alpha 1 nM
T1 construct: determine if they can specifically dimerize the extracellular domains of PD-L1
Outline: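 After 2 h at 25 °C with compound, His- and FLAG-tagged PD-L1 ECDs (each 0.5 nM final; 25 mM Hepes pH 7.4, 150 mM NaCl) were detected by sequential anti-His acceptor and anti-FLAG donor bead incubations. Dose-response curves fitted to four-parameter equation for AC50.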

PD-1/PD-L1 interaction = target: T2, PD-1/PD-L1 interaction (Homo sapiens, UniProt Q9NZQ7); assay: PD-1/PD-L1 NFAT reporter co-culture assay; format: cell-based; conditions: Jurkat PD-1 NFAT-luciferase cells co-cultured with aAPC-PD-L1 CHO cells, 6 hrs at 37° C.; read-out: EC50 NFAT Luciferase
T2 construct: expressed in transfected cells; host or cells: CHO cells (aAPC-PD-L1) co-cultured with Jurkat cells overexpressing PD-1 and an NFAT-luciferase reporter
Outline: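 Restoration of TCR-driven NFAT luciferase signal: 6 h, 37 °C co-culture of PD-1 Jurkat reporter cells (pre-mixed with compound) on overnight-seeded PD-L1/anti-CD3 CHO monolayer. ONE-Glo luminescence; dose-response fitted to four-parameter equation for EC50.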

T2 sequence (Q9NZQ7 19-290): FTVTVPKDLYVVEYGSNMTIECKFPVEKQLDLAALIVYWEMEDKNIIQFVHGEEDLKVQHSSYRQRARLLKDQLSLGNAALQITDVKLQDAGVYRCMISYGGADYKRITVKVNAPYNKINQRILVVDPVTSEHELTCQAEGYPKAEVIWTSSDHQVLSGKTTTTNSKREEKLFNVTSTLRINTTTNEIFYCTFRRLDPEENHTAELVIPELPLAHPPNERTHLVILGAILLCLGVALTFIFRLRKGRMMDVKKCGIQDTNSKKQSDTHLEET
Sequence of PD-1/PD-L1 (Q9NZQ7 19-238 limits assumed): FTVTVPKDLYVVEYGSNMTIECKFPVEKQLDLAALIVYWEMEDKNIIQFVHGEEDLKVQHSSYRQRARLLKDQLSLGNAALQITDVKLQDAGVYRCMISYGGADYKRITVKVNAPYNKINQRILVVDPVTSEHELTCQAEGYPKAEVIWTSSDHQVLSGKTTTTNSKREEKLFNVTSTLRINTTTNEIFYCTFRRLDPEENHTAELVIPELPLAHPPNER
T1 sequence (Q9NZQ7 19-238 limits assumed): as above
T1 sequence (Q9NZQ7 19-238 limits assumed): as above

Compound | IC50 (PD-1/PD-L1) [nM] | AC50 (PD-L1) [nM] | EC50 (PD-1/PD-L1 interaction) [nM]
C[C@@](CO)(NCc1ccc(O[C@H]2CCc3c(-c4cccc(-c5ccc(C6=NCCN6)cc5)c4Cl)cccc32)nc1OCc1cncc(C#N)c1)C(=O)O [Example 740] | 0.064 | 53.6 | 288
C[C@@](CO)(NCc1cc(Br)c(O[C@H]2CCc3c(-c4cccc(-c5ccc(CNC[C@@H]6CCC(=O)N6)cc5)c4Cl)cccc32)nc1OCc1cncc(C#N)c1)C(=O)O [Example 741] | 0.064 | 3.1 | 12
C[C@@](CO)(NCc1ccc(O[C@H]2CCc3c(-c4cccc(-c5ccc(CNC[C@@H]6CCC(=O)N6)cc5)c4Cl)cccc32)nc1OCc1cncc(C#N)c1)C(=O)O [Example 742] | 0.064 | 42 | 32
COC(=O)[C@@](C)(CO)NCc1cc(Br)c(O[C@H]2CCc3c(-c4cccc(-c5ccc(CNC[C@@H]6CCC(=O)N6)c(OC)n5)c4Cl)cccc32)nc1OCc1cncc(C#N)c1 [Example 743] | 0.312 | 82.2 | 50
COc1nc(-c2cccc(-c3cccc4c3CC[C@@H]4Oc3nc(OCc4cncc(C#N)c4)c(CN[C@@](C)(CO)C(=O)O)cc3Br)c2Cl)ccc1C1=NCCN1 [Example 744] | 0.064 | 9.53 | 44
COc1nc(-c2cccc(-c3cccc4c3CC[C@@H]4Oc3nc(OCc4cncc(C#N)c4)c(CN[C@@](C)(CO)C(=O)O)cc3Cl)c2Cl)ccc1C1=NCCN1 [Example 745] | 0.064 | 19.2 | 113
COc1nc(-c2cccc(-c3cccc4c3CC[C@@H]4Oc3ccc(CN[C@@](C)(CO)C(=O)O)c(OCc4cncc(C#N)c4)n3)c2Cl)ccc1C1=NCCN1 [Example 746] | 0.064 | 104 | 143
COc1nc(-c2cccc(-c3cccc4c3CC[C@@H]4Oc3nc(OCc4cncc(C#N)c4)c(CN[C@@](C)(CO)C(=O)O)cc3Br)c2Cl)ccc1CNC[C@@H]1CCC(=O)N1 [Example 747] | 0.064 | 5.36 | 10
COc1nc(-c2cccc(-c3cccc4c3CC[C@@H]4Oc3nc(OCc4cncc(C#N)c4)c(CN[C@@](C)(CO)C(=O)O)cc3Br)c2C)ccc1C1=NCCN1 [Example 748] | 0.064 | 10.1 | 24
COc1nc(-c2cccc(-c3cccc4c3CC[C@@H]4Oc3nc(OCc4cncc(C#N)c4)c(CN[C@@](C)(CO)C(=O)O)cc3Cl)c2C)ccc1C1=NCCN1 [Example 749] | 0.064 | 16.8 | 77
COc1nc(-c2cccc(-c3cccc4c3CC[C@@H]4Oc3ccc(CN[C@@](C)(CO)C(=O)O)c(OCc4cncc(C#N)c4)n3)c2C)ccc1C1=NCCN1 [Example 750] | 0.064 | 72.1 | 222
N#Cc1cncc(COc2nc(O[C@H]3CCc4c(-c5cccc6c5CC[C@@H]6Oc5nc(OCc6cncc(C#N)c6)c(CNCCO)cc5Br)cccc43)c(Br)cc2CNCCO)c1 [Example 751] | 4.51 | 182 | 355
N#Cc1cncc(COc2nc(O[C@H]3CCc4c(-c5cccc6c5CC[C@@H]6Oc5nc(OCc6cncc(C#N)c6)c(C6=NCCN6)cc5Br)cccc43)c(Br)cc2C2=NCCN2)c1 [Example 752] | 0.779 | 82.5 | 471
Cc1c(-c2ccc(OCCNC[C@@H](O)CC(=O)O)cc2)cccc1-c1cccc2c1CC[C@@H]2Oc1nc(OCc2cccc(C#N)c2)c(CNC[C@@H](O)CC(=O)O)cc1Br [Example 755] | 0.155 | 39.2 | 139
COc1nc(-c2cccc(-c3cccc4c3CC[C@@H]4Oc3nc(OC)c(CN4CC(C(=O)O)C4)cc3Cl)c2Cl)ccc1CNC[C@@H]1CCC(=O)N1 [Example 757] | 0.064 | 17.6 | 15
COc1nc(-c2cccc(-c3cccc4c3CC[C@@H]4Oc3nc(OC)c(CN4CCC[C@@H](C(=O)O)C4)cc3Cl)c2Cl)ccc1CNC[C@@H]1CCC(=O)N1 [Example 758] | 0.064 | 36.7 | 29
